In PubChem BioAssay AID1918953 (Molecular Pharmacology Branch, DTP, NCI, 2023):

Test system: MDA-MB-231 complex spheroid viability
Assay: Anticancer human tumor MDA-MB-231/ATCC cell line growth inhibition;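 further: drug exposure lasted 7 days starting on day 3 of spheroid growth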
Details: for IC50: curve of first compound; for viability, T/C: stronger effect = lower value
From the text: Multicellular complex tumor spheroid response to LSD1 Inhibitor Iadademstat in combination with a variety of drugs and investigational agents in selected tumor cell lines
The current study was undertaken to assess response to LSD1 inhibitors in combination with standard-of-care drugs and investigational agents in solid tumor complex spheroid models as well as in the K-562 leukemia. Complex spheroids include a stromal component modeled by human endothelial cells (HUVEC) and fibroblasts modeled by human mesenchymal stem cells (MSCs). The concentration ranges selected for each drug and investigational agent were based upon clinically achievable concentrations if the clinical Cmax of the agent was known.
Compounds. The drugs and investigational agents used in this study are listed on Table 1. All of the agents used, including staurosporine (NSC755774) and gemcitabine (NSC613327), were obtained from the Developmental Therapeutics Program, NCI. FDA-approved anticancer drugs are available from the NCI at http://dtp.nci.nih.gov/branches/dscb/oncology_drugset_explanation.html. Drugs and investigational agents were >95% pure by proton nuclear magnetic resonance (NMR) and liquid chromatography/mass spectrometry (LC/MS). Stock solutions were prepared at 400x in DMSO, stored at -70 degrees C, and diluted in fresh medium prior to their use. The final concentration of DMSO in cell culture wells never exceeded 0.25% (v/v). The FDA-approved anticancer drug set is available from the Developmental Therapeutics Program at https://dtp.cancer.gov/organization/dscb/obtaining/available_plates.htm. All drugs and investigational agents were tested over a range starting from a high concentration at or near the clinical Cmax and decreasing in half-log increments. If the clinical Cmax for an agent had not been determined, the highest concentration tested was 10 microM.
Cell Lines. The patient-derived cancer cell (PDC) lines: 292921-168-R-J2-PDC, K24384-001-R-PDC, and 521955-158-R2-J5-PDC pancreatic carcinomas, 556581-035-R-J1 ovarian carcinoma, 324938-238-R-J1-PDC, 855422-203-R-J1-PDC and 883617-216-R-J1-PDC urothelial bladder carcinomas, 743489-274-T-PDC renal cell carcinoma, 138582-R-J1 Merkel cell tumor, K60290-347-R-J1 and K57222-313-R-J1-PDC glioblastomas, 653999-131-R-J2-PDC, LG0703-F948-PDC, and 349418-098-R-PDC non-small cell lung carcinomas, 885512-296-R-J2-PDC, 171881-019-R-J1-PDC breast carcinomas and 186277-243-T-J2-PDC and 233499-124-R-J2-PDC colon carcinomas were obtained from the NCI Patient-Derived Models Repository (PDMR, https://pdmr.cancer.gov). The established cell lines NCI/ADR-RES (RRID:CVCL_14520 and OVCAR-5 (RRID:CVCL_1628) ovarian carcinomas, 786-O (RRID:CVCL_1051) and A498 (RRID:CVCL_A498) renal cell carcinoma, NCI-H211 (ATCC, cat. CRL-5824; RRID:CVCL_1529), NCI-H196 (ATCC, cat. CRL-5823, RRID:CVCL_1509), SW 1271 (ATCC, cat. CRL-2177, RRID:CVCL_1716) and NCI-H1876 (ATCC, cat. CRL-5902, RRID:CVCL_1503) small cell lung carcinomas, MDA-MB-231 (RRID:CVCL_0062) and MDA-MB-468 (RRID:CVCL_0419)breast carcinomas (10-12). Pooled donor human umbilical vein endothelial cells (HUVEC, Lonza, cat. CC-2519) and human mesenchymal stem cells (hMSC, Lonza, cat. PT-2501) were purchased from Lonza (Walkersville, MD).
Cell Culture. All cells were maintained in an incubator at 37 degrees C and 5% CO2 with 95% humidity. The PDC lines were cultured according to standard operating procedures established by the NCI PDMR (https://pdmr.cancer.gov). Briefly all PDCs were thawed and cultured in Matrigel-coated flasks prepared with a working solution of 1X Ham's F-12 nutrient mix, without supplementation (Invitrogen, Waltham, MA, cat. 11765054), 100 U/mL penicillin-streptomycin (Invitrogen, cat. 15140122), and 2.5% Matrigel (Corning Inc., Corning, NY, cat. 354248) for the first three passages. […]

[1] = second compound 0.1 µM, first compound 0.00316 µM
[2] = second compound 0.1 µM, first compound 0.01 µM
[3] = second compound 0.1 µM, first compound 0.0316 µM
[4] = second compound 0.1 µM, first compound 0.1 µM
[5] = second compound 0.316 µM, first compound 0.00316 µM
[6] = second compound 0.316 µM, first compound 0.01 µM
[7] = second compound 0.316 µM, first compound 0.0316 µM
[8] = second compound 0.316 µM, first compound 0.1 µM
[9] = second compound 1 µM, first compound 0.00316 µM
[10] = second compound 1 µM, first compound 0.01 µM
[11] = second compound 1 µM, first compound 0.0316 µM
[12] = second compound 1 µM, first compound 0.1 µM
[13] = second compound 3.16 µM, first compound 0.00316 µM
[14] = second compound 3.16 µM, first compound 0.01 µM
[15] = second compound 3.16 µM, first compound 0.0316 µM
[16] = second compound 3.16 µM, first compound 0.1 µM
[17] = second compound 10 µM, first compound 0.00316 µM
[18] = second compound 10 µM, first compound 0.01 µM
[19] = second compound 10 µM, first compound 0.0316 µM
[20] = second compound 10 µM, first compound 0.1 µM

## CC[C@@]1(O)C(=O)OCc2c1cc1n(c2=O)Cc2cc3c(CN(C)C)c(O)ccc3nc2-1 + NC1CC1c1ccc(-c2cccc(O)c2)cc1
Second compound 0.1 µM
  IC50: 0.00163 µM
Second compound 0.316 µM
  IC50: 0.000845 µM
Second compound 1 µM
  IC50: 0.000672 µM
Second compound 3.16 µM
  IC50: 0.00104 µM
Second compound 10 µM
  IC50: < 0.000316 µM
Second compound 0.1 µM, first compound 0.000316 µM
  viability, T/C: 72.6%
Second compound 0.1 µM, first compound 0.001 µM
  viability, T/C: 62.5%
[1]
  viability, T/C: 33.1%
[2]
  viability, T/C: 23.5%
[3]
  viability, T/C: 27.3%
[4]
  viability, T/C: 22%
Second compound 0.316 µM, first compound 0.000316 µM
  viability, T/C: 61.8%
Second compound 0.316 µM, first compound 0.001 µM
  viability, T/C: 48.1%
[5]
  viability, T/C: 28.9%
[6]
  viability, T/C: 25.3%
[7]
  viability, T/C: 26%
[8]
  viability, T/C: 20.4%
Second compound 1 µM, first compound 0.000316 µM
  viability, T/C: 62.3%
Second compound 1 µM, first compound 0.001 µM
  viability, T/C: 43.6%
[9]
  viability, T/C: 32%
[10]
  viability, T/C: 25.1%
[11]
  viability, T/C: 24.6%
[12]
  viability, T/C: 20.5%
Second compound 3.16 µM, first compound 0.000316 µM
  viability, T/C: 57.2%
Second compound 3.16 µM, first compound 0.001 µM
  viability, T/C: 50.8%
[13]
  viability, T/C: 29.4%
[14]
  viability, T/C: 25.5%
[15]
  viability, T/C: 25%
[16]
  viability, T/C: 20.9%
Second compound 10 µM, first compound 0.000316 µM
  viability, T/C: 49%
Second compound 10 µM, first compound 0.001 µM
  viability, T/C: 36.1%
[17]
  viability, T/C: 24.3%
[18]
  viability, T/C: 22.5%
[19]
  viability, T/C: 22.3%
[20]
  viability, T/C: 16.2%

## COc1cc(C2c3cc4c(cc3C(OC3OC5COC(C)OC5C(O)C3O)C3COC(=O)C23)OCO4)cc(OC)c1O (stereo not given) + NC1CC1c1ccc(-c2cccc(O)c2)cc1
Second compound 0.1 µM
  IC50: 0.0226 µM
Second compound 0.316 µM
  IC50: 0.0134 µM
Second compound 1 µM
  IC50: 0.0154 µM
Second compound 3.16 µM
  IC50: < 0.00949 µM
Second compound 10 µM
  IC50: < 0.00949 µM
Second compound 0.1 µM, first compound 0.00949 µM
  viability, T/C: 67.5%
Second compound 0.1 µM, first compound 0.03 µM
  viability, T/C: 43.7%
Second compound 0.1 µM, first compound 0.0949 µM
  viability, T/C: 28.4%
Second compound 0.1 µM, first compound 0.3 µM
  viability, T/C: 25.9%
Second compound 0.1 µM, first compound 0.949 µM
  viability, T/C: 15.5%
Second compound 0.1 µM, first compound 3 µM
  viability, T/C: 12%
Second compound 0.316 µM, first compound 0.00949 µM
  viability, T/C: 55%
Second compound 0.316 µM, first compound 0.03 µM
  viability, T/C: 38.7%
Second compound 0.316 µM, first compound 0.0949 µM
  viability, T/C: 27.1%
Second compound 0.316 µM, first compound 0.3 µM
  viability, T/C: 20.5%
Second compound 0.316 µM, first compound 0.949 µM
  viability, T/C: 14.2%
Second compound 0.316 µM, first compound 3 µM
  viability, T/C: 11.3%
Second compound 1 µM, first compound 0.00949 µM
  viability, T/C: 56.7%
Second compound 1 µM, first compound 0.03 µM
  viability, T/C: 41.7%
Second compound 1 µM, first compound 0.0949 µM
  viability, T/C: 24.9%
Second compound 1 µM, first compound 0.3 µM
  viability, T/C: 23%
Second compound 1 µM, first compound 0.949 µM
  viability, T/C: 14%
Second compound 1 µM, first compound 3 µM
  viability, T/C: 11.9%
Second compound 3.16 µM, first compound 0.00949 µM
  viability, T/C: 48.6%
Second compound 3.16 µM, first compound 0.03 µM
  viability, T/C: 32.3%
Second compound 3.16 µM, first compound 0.0949 µM
  viability, T/C: 23.5%
Second compound 3.16 µM, first compound 0.3 µM
  viability, T/C: 20.3%
Second compound 3.16 µM, first compound 0.949 µM
  viability, T/C: 14.7%
Second compound 3.16 µM, first compound 3 µM
  viability, T/C: 11.7%
Second compound 10 µM, first compound 0.00949 µM
  viability, T/C: 38.2%
Second compound 10 µM, first compound 0.03 µM
  viability, T/C: 25.5%
Second compound 10 µM, first compound 0.0949 µM
  viability, T/C: 24.9%
Second compound 10 µM, first compound 0.3 µM
  viability, T/C: 20.1%
Second compound 10 µM, first compound 0.949 µM
  viability, T/C: 11.6%
Second compound 10 µM, first compound 3 µM
  viability, T/C: 10%

## Nc1ncn(C2CC(O)C(CO)O2)c(=O)n1 (stereo not given) + NC1CC1c1ccc(-c2cccc(O)c2)cc1
Second compound 0.1 µM
  IC50: > 1 µM
Second compound 0.316 µM
  IC50: 0.56 µM
Second compound 1 µM
  IC50: 0.183 µM
Second compound 3.16 µM
  IC50: 0.251 µM
Second compound 10 µM
  IC50: < 0.00316 µM
[1]
  viability, T/C: 74.5%
[2]
  viability, T/C: 75.8%
[3]
  viability, T/C: 76.2%
[4]
  viability, T/C: 66.8%
Second compound 0.1 µM, first compound 0.316 µM
  viability, T/C: 55%
Second compound 0.1 µM, first compound 1 µM
  viability, T/C: 56%
[5]
  viability, T/C: 70.4%
[6]
  viability, T/C: 63.5%
[7]
  viability, T/C: 61.4%
[8]
  viability, T/C: 51.8%
Second compound 0.316 µM, first compound 0.316 µM
  viability, T/C: 50.9%
Second compound 0.316 µM, first compound 1 µM
  viability, T/C: 49.6%
[9]
  viability, T/C: 60.5%
[10]
  viability, T/C: 58.4%
[11]
  viability, T/C: 57.3%
[12]
  viability, T/C: 50.4%
Second compound 1 µM, first compound 0.316 µM
  viability, T/C: 47.7%
Second compound 1 µM, first compound 1 µM
  viability, T/C: 45%
[13]
  viability, T/C: 70.2%
[14]
  viability, T/C: 63.4%
[15]
  viability, T/C: 60.6%
[16]
  viability, T/C: 53.3%
Second compound 3.16 µM, first compound 0.316 µM
  viability, T/C: 49.6%
Second compound 3.16 µM, first compound 1 µM
  viability, T/C: 43.7%
[17]
  viability, T/C: 49.7%
[18]
  viability, T/C: 45.3%
[19]
  viability, T/C: 43.9%
[20]
  viability, T/C: 41.5%
Second compound 10 µM, first compound 0.316 µM
  viability, T/C: 40.3%
Second compound 10 µM, first compound 1 µM
  viability, T/C: 37.1%
